Reference: USRE32310E, “Derivatives of A-21978C cyclic peptides” (Eli Lilly and Company, priority 1985, dated 1986)
≈ marks a conversion by molar mass, not a printed value.

Legend:
[1] = tested on: Staphylococcus aureus ATCC 6738P; experiment: Agar-plate disc-diffusion test; type: cell-based; details: compound suspended in water at 1 mg/ml, 7mm disc, 24-48 hours at 25-37° C.
[2] = tested on: Micrococcus luteus ATCC 9341; experiment: Agar-plate disc-diffusion test; type: cell-based; details: 1 mg/ml, 7mm disc, 24-48 hours at 25-37° C.
[3] = tested on: Staphylococcus aureus S13E; experiment: Standard agar-dilution test (MIC); type: cell-based
Procedure: (§1) The results of the antibacterial testing of a representative compound of formula 1, using the standard agar-dilution test, are summarized in Table II. In Table II activity is measured by the minimal inhibitory concentration (MIC), i.e. the lowest concentration of compound which inhibits the growth of the microorganism.

[4] = tested on: Staphylococcus aureus V41; experiment: Standard agar-dilution test (MIC); type: cell-based; details: Staphylococcus aureus V41, penicillin-resistant strain
Procedure: as §1

[5] = tested on: Staphylococcus aureus X1.1; experiment: Standard agar-dilution test (MIC); type: cell-based
Procedure: as §1

[6] = tested on: Staphylococcus aureus X400; experiment: Standard agar-dilution test (MIC); type: cell-based; details: Staphylococcus aureus X400, methicillin-resistant strain
Procedure: as §1

[7] = tested on: Staphylococcus epidermidis EPI1; experiment: Standard agar-dilution test (MIC); type: cell-based
Procedure: as §1

[8] = tested on: Staphylococcus epidermidis EPI2; experiment: Standard agar-dilution test (MIC); type: cell-based
Procedure: as §1

Streptococcus Group 9960 = experiment: Standard agar-dilution test (MIC); type: cell-based
Procedure: as §1

[9] = tested on: Streptococcus Group D X66; experiment: Standard agar-dilution test (MIC); type: cell-based
Procedure: as §1

[10] = tested on: Streptococcus pyogenes C203; experiment: Standard agar-dilution test (MIC); type: cell-based
Procedure: as §1

Staphylococcus aureus = experiment: In vivo activity against experimental bacterial infection; details: mice, subcutaneous, two doses
Procedure: (§2) The representative A-21978C cyclic peptide of formula 1 has shown in vivo antimicrobial activity against experimental bacterial infections. When two doses of test compound were administered to mice in illustrative infections, the activity observed was measured as an ED50 value [effective dose in mg/kg to protect fifty percent of the test animals: See Warren Wick, et al., J. Bacteriol. 81, 233-235 (1961)].

Streptococcus pyogenes = experiment: as above; details: mice, two doses
Procedure: as §2

[11] = tested on: Bacillus subtilis ATCC 6633; experiment: Agar-plate disc-diffusion test; details: 1 mg/ml, 7mm disc
Procedure: ^a Compounds were suspended in water at a concentration of 1 mg/ml; a
7mm disc was dipped into the suspension and then placed on the agar
surface; incubation 24-48 hours at 25-37° C.

[12] = B. subtilis ATCC 6633 grown on minimal nutrient agar
[13] = Bacillus subtilis ATCC 6633, 24-48 hours at 25-37° C.

| Compound | Size of Zone of Inhibition [1] | Size of Zone of Inhibition [2] | MIC Values [3] | MIC Values [4] | MIC Values [5] | MIC Values [6] | MIC Values [7] | MIC Values [8] | MIC Values (Streptococcus Group 9960) | MIC Values [9] | MIC Values [10] | ED50 Values (Staphylococcus aureus) | ED50 Values (Streptococcus pyogenes; oral) | ED50 Values (Streptococcus pyogenes; subcutaneous) | Size of Zone of Inhibition [11, 12] | Size of Zone of Inhibition [11, 13] |
| --- | --- | --- | --- | --- | --- | --- | --- | --- | --- | --- | --- | --- | --- | --- | --- | --- |
| CCCCCCCCCCCCOc1ccc(C(=O)N[C@@H](Cc2c[nH]c3ccccc23)C(=O)N[C@H](CC(N)=O)C(=O)N[C@@H](CC(=O)O)C(=O)N[C@@H]2C(=O)NCC(=O)N[C@@H](CCCN)C(=O)N[C@@H](CC(=O)O)C(=O)N[C@H](C)C(=O)N[C@@H](CC(=O)O)C(=O)NCC(=O)N[C@H](CO)C(=O)N[C@@H]([C@H](C)CC(=O)O)C(=O)N[C@@H](CC(=O)c3ccccc3N)C(=O)O[C@@H]2C)cc1 [NTrp --p-(n-Dodecyloxy)benzoyl-A-21978C, NTrp -p-(n-dodecyloxy)benzoyl-A-21978C Nucleus] | 20 mm | 18 mm | 1 µg/mL (≈ 0.57 µM) | 1 µg/mL (≈ 0.57 µM) | 1 µg/mL (≈ 0.57 µM) | 2 µg/mL (≈ 1.14 µM) | 4 µg/mL (≈ 2.28 µM) | 2 µg/mL (≈ 1.14 µM) | 1 µg/mL (≈ 0.57 µM) | 2 µg/mL (≈ 1.14 µM) | 0.25 µg/mL (≈ 0.142 µM) | 3.35 mg/kg × 2 | > 200 mg/kg × 2 | 0.31 mg/kg × 2 | 20 mm | 13 mm |
| NTrp -p-(n-Dodecyloxy)benzoyl-NOrn -t-BOC-A-21978C Nucleus [p-(n-dodecyloxy)benzoyl t-BOC] | 20 mm | 15 mm | – | – | – | – | – | – | – | – | – | – | – | – | 22 mm | 10 mm |
